# Source: patent US6187783A, “Phenanthridinium derivatives” (Nippon Kayaku Kabushiki Kaisha, priority 1996, dated 2001)
# Like-named read-outs stand apart in the source and are kept apart here.
# How the values were obtained:
# [1] = Chemical reduction with sodium cyanoborohydride; assay type: physicochemical
# Description: (§1) In addition, when an in vitro metabolic test using liver homogenate (S9) prepared from human liver was performed with reference to the method described in Arch. […] This product coincided with the reduced product formed by the chemical reduction described above.
# (§2) 2,3-(Methylenedioxy)-7-hydroxy-8-methoxy-5,6-propano-benzo[c]phenanthridinium chloride, which is one of the compounds of the present invention, was treated with sodium cyanoborohydride in an aqueous solution at room temperature.
# The compound of the present invention (0.1 mg/mL aqueous solution, 0.1 mL) was diluted with methanol (1.0 mL). An aqueous solution of sodium cyanoborohydride (4 mg/mL, 0.02 mL) was added to the solution. The mixture was allowed to stand at room temperature. The reaction was terminated by adding 1% aqueous phosphoric acid (1 mL) thereto. The residual amount of the compound was determined by high performance liquid chromatography. As a control, 2,3-(methylenedioxy)-5-methyl-7-hydroxy-8-methoxy-benzo[c]phenanthridiniumhydrogensulfate was similarly reacted.
# [2] = system: Human uterus cancer-derived cells HeLa S3; test: Growth prevention against cancer cells (72 h contact, Methylene Blue staining); assay type: cell-based; details: HeLa S3, 72 hours contact, 37° C., read-out: 50% Inhibitory Concentration (IC50)
# Description: The compounds of the present invention were examined on the antitumor activity, and the thus obtained results are shown below.
# 1. Growth prevention against cancer cells
# Human uterus cancer-derived cells HeLa S3 were incubated at 37° C. for 24 hours in 5% CO2. A test compound was then brought into contact with the cells for 72 hours. Then, the cells were stained with 0.05% Methylene Blue. The pigment was extracted from the stained cells. The growth inhibition of the cells were determined based on absorbance at 660 nm to calculate 50% growth inhibitory concentration (IC50).
# [3] = In vitro metabolic test using liver homogenate (S9); assay type: in vitro ADME, human
# Description: as §1, §2
# female CDF1 mice = test: Acute toxicity by intravenous injection; assay type: in vivo, mouse (female CDF1 mice); details: female CDF1 mice of 6 weeks old
# Description: The acute toxicity was assessed by intravenous injection of 2,3-(methylenedioxy)-7-hydroxy-8-methoxy-5,6-propano-benzo[c]phenanthridinium chloride (Compound No. A-4 of the present invention, (X^- =Cl^-)) to female CDF1 mice of 6 weeks old.
# [4] = system: Mouse leukemia cells P388; test: Antitumor effect on cancer cells in vivo (P388 leukemia, survival); set-up: species or system mouse (female CDF1 mice); details: i.v. single administration; for Survived Days: P388 in female CDF1 mice; for Effect (T/C %): ratio of survival days to median of control group
# Description: 2. Antitumor effect on cancer cells in vivo
# Mouse leukemia cells P388 was intravenously injected to female CDF1 mice of 6 weeks old in a dose of 10^5 cells/mouse. A 5% glucose aqueous solution of 2,3-(methylenedioxy)-7-hydroxy-8-methoxy-5,6-propano-benzo[c]phenanthridinium chloride (Compound No. A-4 of the present invention, (X^- =Cl^-)) was intravenously injected by single administration on the day following the tumor transportation. The antitumor effect was evaluated by comparing the ratio (T/C %) of survival days to the median of survival days in the control group (5 mice).
# [5] = aqueous sodium cyanoborohydride
SMILES,"Amount of Compound remained after Reduction [1, 5]",IC50 [2],Production of metabolite [3],Acute toxicity (survival) (female CDF1 mice),Survived Days ([4]; 25 mg/kg/day),Effect (T/C %) ([4]; 25 mg/kg/day),Survived Days ([4]; 50 mg/kg/day),Effect (T/C %) ([4]; 50 mg/kg/day),Survived Days ([4]; 75 mg/kg/day),Effect (T/C %) ([4]; 75 mg/kg/day),Survived Days ([4]; 100 mg/kg/day),Effect (T/C %) ([4]; 100 mg/kg/day),"Production of metabolite ([3]; in vitro, liver homogenate (S9) prepared from human liver)","Disappearance on treatment with sodium cyanoborohydride ([1]; aqueous solution, room temperature)","Amount of Compound remained after Reduction ([1]; sodium cyanoborohydride, room temperature, terminated with phosphoric acid, HPLC)"
"COc1ccc2c(c1O)c1[n+](c3c4cc5c(cc4ccc23)OCO5)CCCC1 [Compound No. A-7, 2,3-(methylenedioxy)-7-hydroxy-8-methoxy-5,6-butano-benzo[c]phenanthridinium chloride]",100,5600 nM,–,–,–,–,–,–,–,–,–,–,–,–,–
"COc1ccc2c(c1O)c1[n+](c3c4cc5c(cc4ccc23)OCO5)CCC1 [Compound No. A-4, 2,3-(methylenedioxy)-7-hydroxy-8-methoxy-5,6-propano-benzo[c]phenanthridinium chloride]",50,170 nM,no metabolite was produced,"survived even in a dose of 100 mg/kg, without showing any death",14 days,167%,21 days,250%,> 30 days,> 357%,> 30 days,> 357%,–,–,–
"COc1ccc2c(c[n+](C)c3c4cc5c(cc4ccc23)OCO5)c1O [Control, 2,3-(methylenedioxy)-5-methyl-7-hydroxy-8-methoxy-benzo[c]phenanthridiniumhydrogensulfate, reference compound]",–,–,–,–,–,–,–,–,–,–,–,–,production of the metabolite was observed,the phenanthridinium is lost in a few minutes,0
